# In ChEMBL document CHEMBL1201862, “PubChem BioAssay data set” (2004):
#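 96-well plates; 48 h exposure; 5 concentrations. Endpoints by linear interpolation between flanking doses. Not reached: highest tested concentration assigned. Here, GI50 denotes the concentration required for 50% inhibition of growth.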 Active and inactive are the calls of the source. Cut-off read from the data, not from the text of the source: active = GI50 up to about 1.1 µM and inactive = higher.
# Tests used:
# Assay in all cases: inhibition of tumour cell growth, NCI panel, 48 h
# CCRF-CEM = test system: CCRF-CEM
# NCI-H23 = test system: NCI-H23
# SK-MEL-28 = test system: SK-MEL-28
# HCT-15 = test system: HCT-15
# OVCAR-8 = test system: OVCAR-8
# SN12C = test system: SN12C
# UO-31 = test system: UO-31
# COLO 205 = test system: COLO 205
# OVCAR-4 = test system: OVCAR-4
# U-251 = test system: U-251
# SF-295 = test system: SF-295
# HCT-116 = test system: HCT-116
# K562 = test system: K562
# SK-MEL-2 = test system: SK-MEL-2
# CAKI-1 = test system: CAKI-1
# HOP-62 = test system: HOP-62
# HT-29 = test system: HT-29
# A549 = test system: A549
# IGROV-1 = test system: IGROV-1
# BT-549 = test system: BT-549
SMILES,GI50 (CCRF-CEM),GI50 (NCI-H23),GI50 (SK-MEL-28),GI50 (HCT-15) [µM],GI50 (OVCAR-8),GI50 (SN12C),GI50 (UO-31),GI50 (COLO 205),GI50 (OVCAR-4),GI50 (U-251),GI50 (SF-295),GI50 (HCT-116),GI50 (K562),GI50 (SK-MEL-2),GI50 (CAKI-1),GI50 (HOP-62),GI50 (HT-29),GI50 (A549),GI50 (IGROV-1),GI50 (BT-549)
CC(=O)OC1CC2(O)C(CCC3(C)C(c4ccc(=O)oc4)CCC32O)C2(C)C1=CC(O)C1OC12 (centres undefined),0.0267 µM (active),0.0275 µM (active),0.0621 µM (active),0.053,0.0349 µM (active),0.0349 µM (active),0.0713 µM (active),0.0726 µM (active),0.0457 µM (active),0.0762 µM (active),0.0366 µM (active),0.0296 µM (active),0.0467 µM (active),0.0724 µM (active),0.0324 µM (active),0.05 µM (active),0.135 µM (active),0.028 µM (active),0.0653 µM (active),
CC1=C(C)[C@@]2(C)O[C@@]2(C)O[C@@]2(C)O[C@@]12C,,> 100 µM (inactive),> 100 µM (inactive),> 100,> 100 µM (inactive),> 100 µM (inactive),> 100 µM (inactive),> 100 µM (inactive),> 100 µM (inactive),> 100 µM (inactive),> 100 µM (inactive),> 100 µM (inactive),> 100 µM (inactive),> 100 µM (inactive),> 100 µM (inactive),> 100 µM (inactive),> 100 µM (inactive),> 100 µM (inactive),,> 100 µM (inactive)
Cc1ccc2oc3c(ccc(=O)n3C)c(=O)c2c1,> 100 µM (inactive),> 100 µM (inactive),> 100 µM (inactive),> 100,> 100 µM (inactive),> 100 µM (inactive),> 100 µM (inactive),> 100 µM (inactive),> 100 µM (inactive),> 100 µM (inactive),> 100 µM (inactive),> 100 µM (inactive),> 100 µM (inactive),> 100 µM (inactive),> 100 µM (inactive),> 100 µM (inactive),> 100 µM (inactive),> 100 µM (inactive),> 100 µM (inactive),
COc1cccc(C2C(C(=O)O)=C(CO)Oc3cc4c(cc32)OCO4)c1OC (centres undefined),> 100 µM (inactive),> 100 µM (inactive),> 100 µM (inactive),> 100,> 100 µM (inactive),> 100 µM (inactive),> 100 µM (inactive),> 100 µM (inactive),,> 100 µM (inactive),> 100 µM (inactive),,> 100 µM (inactive),> 100 µM (inactive),> 100 µM (inactive),,,,> 100 µM (inactive),
COC(=O)C1=C(C)N2CCOC2(C)C(C(=O)OC)C1c1ccc[nH]1 (centres undefined),> 100 µM (inactive),> 100 µM (inactive),> 100 µM (inactive),,> 100 µM (inactive),,> 100 µM (inactive),> 100 µM (inactive),> 100 µM (inactive),,> 100 µM (inactive),> 100 µM (inactive),> 100 µM (inactive),> 100 µM (inactive),> 100 µM (inactive),> 100 µM (inactive),> 100 µM (inactive),> 100 µM (inactive),> 100 µM (inactive),
COC(=O)c1cc(NC2OCC(OC(C)=O)C(OC(C)=O)C2OC(C)=O)nc(SC)c1C(=O)OC (centres undefined),> 100 µM (inactive),> 100 µM (inactive),> 100 µM (inactive),> 100,> 100 µM (inactive),> 100 µM (inactive),> 100 µM (inactive),> 100 µM (inactive),> 100 µM (inactive),> 100 µM (inactive),> 100 µM (inactive),> 100 µM (inactive),,> 100 µM (inactive),> 100 µM (inactive),> 100 µM (inactive),> 100 µM (inactive),> 100 µM (inactive),> 100 µM (inactive),> 100 µM (inactive)
Cc1cc(S(=O)(=O)Nc2nc(Nc3ccccc3)n[nH]2)c(SSc2cc(Cl)c(C)cc2S(=O)(=O)Nc2nc(Nc3ccccc3)n[nH]2)cc1Cl,43.8 µM (inactive),> 100 µM (inactive),> 100 µM (inactive),> 100,> 100 µM (inactive),> 100 µM (inactive),> 100 µM (inactive),> 100 µM (inactive),> 100 µM (inactive),61.4 µM (inactive),> 100 µM (inactive),> 100 µM (inactive),32.6 µM (inactive),,90.4 µM (inactive),> 100 µM (inactive),98.2 µM (inactive),> 100 µM (inactive),> 100 µM (inactive),> 100 µM (inactive)
Cc1cc(C)nc(NS(=O)(=O)c2ccc(Nc3c4ccccc4nc4c(C(=O)N5CCN(CCOS(C)(=O)=O)CC5)cccc34)cc2)n1,72.9 µM (inactive),> 100 µM (inactive),> 100 µM (inactive),> 100,> 100 µM (inactive),> 100 µM (inactive),> 100 µM (inactive),> 100 µM (inactive),> 100 µM (inactive),67 µM (inactive),> 100 µM (inactive),> 100 µM (inactive),53.2 µM (inactive),> 100 µM (inactive),> 100 µM (inactive),> 100 µM (inactive),> 100 µM (inactive),> 100 µM (inactive),> 100 µM (inactive),
NC(CCCCCCCCCCP(=O)(O)O)C(=O)O (centres undefined),> 100 µM (inactive),> 100 µM (inactive),> 100 µM (inactive),> 100,> 100 µM (inactive),> 100 µM (inactive),> 100 µM (inactive),> 100 µM (inactive),> 100 µM (inactive),> 100 µM (inactive),> 100 µM (inactive),> 100 µM (inactive),> 100 µM (inactive),> 100 µM (inactive),4.23 µM (inactive),,> 100 µM (inactive),> 100 µM (inactive),> 100 µM (inactive),
C=CCC(O[Si](C)(C)C(C)(C)C)c1cc(O[Si](C)(C)C(C)(C)C)ccc1OC (centres undefined),> 100 µM (inactive),> 100 µM (inactive),> 81.8 µM (inactive),> 74.5,> 81.3 µM (inactive),> 87.3 µM (inactive),> 82 µM (inactive),> 83 µM (inactive),> 67.3 µM (inactive),> 71.6 µM (inactive),> 71.8 µM (inactive),> 80.7 µM (inactive),> 100 µM (inactive),> 75.5 µM (inactive),40.7 µM (inactive),> 100 µM (inactive),> 100 µM (inactive),> 64.1 µM (inactive),> 100 µM (inactive),
COc1ccc(OC)c(SC(CC(=O)c2ccccc2)c2ccccc2)c1 (centres undefined),5.08 µM (inactive),18.6 µM (inactive),17.5 µM (inactive),17.5,11.3 µM (inactive),17.9 µM (inactive),12.1 µM (inactive),19.5 µM (inactive),61.4 µM (inactive),10.2 µM (inactive),15.2 µM (inactive),3.66 µM (inactive),4.91 µM (inactive),20.1 µM (inactive),13.9 µM (inactive),20.9 µM (inactive),8.24 µM (inactive),27.9 µM (inactive),11 µM (inactive),
CN1CCN(c2cc(-c3cc4ccccc4o3)oc(=O)c2C#N)CC1,71.4 µM (inactive),> 100 µM (inactive),> 100 µM (inactive),99.8,57.7 µM (inactive),53.3 µM (inactive),> 100 µM (inactive),66.5 µM (inactive),93.5 µM (inactive),> 100 µM (inactive),> 100 µM (inactive),77.1 µM (inactive),66.5 µM (inactive),> 100 µM (inactive),36.1 µM (inactive),,78 µM (inactive),70.8 µM (inactive),88.9 µM (inactive),
COc1cc(CCCOC2OC(COC3OCC(O)C(O)C3O)C(O)C(O)C2O)cc2cc(-c3ccc4c(c3)OCO4)oc12 (centres undefined),> 69.7 µM (inactive),> 175 µM (inactive),> 175 µM (inactive),> 175,94.6 µM (inactive),81.3 µM (inactive),> 175 µM (inactive),> 175 µM (inactive),> 175 µM (inactive),> 175 µM (inactive),> 175 µM (inactive),> 175 µM (inactive),> 175 µM (inactive),> 175 µM (inactive),> 175 µM (inactive),> 175 µM (inactive),> 175 µM (inactive),> 175 µM (inactive),> 175 µM (inactive),
Cc1ccc2cc3cccc(C(=O)NCCN(C)C)c3nc2c1,0.679 µM (active),1.25 µM (inactive),1.63 µM (inactive),0.955,0.631 µM (active),0.893 µM (active),0.839 µM (active),0.483 µM (active),0.998 µM (active),1.66 µM (inactive),0.832 µM (active),0.459 µM (active),0.69 µM (active),1.87 µM (inactive),0.275 µM (active),0.923 µM (active),0.449 µM (active),0.644 µM (active),1.42 µM (inactive),
O=C(OCc1ccccc1)C(Cc1ccccc1)N(Cc1ccccc1)Cc1ccccc1 (centres undefined),25.8 µM (inactive),> 100 µM (inactive),> 100 µM (inactive),43.7,> 100 µM (inactive),53 µM (inactive),59 µM (inactive),> 100 µM (inactive),28.8 µM (inactive),27.7 µM (inactive),> 100 µM (inactive),24.1 µM (inactive),14.4 µM (inactive),> 100 µM (inactive),> 100 µM (inactive),> 100 µM (inactive),> 100 µM (inactive),65.9 µM (inactive),> 100 µM (inactive),
